Tests used:
[1] = system: wild oat; test: Test E wild oat; assay type: in vivo, Avena fatua; conditions: Preemergence
[2] = system: velvetleaf; test: Test B pre/postemergence velvetleaf; assay type: in vivo, Abutilon theophrasti; conditions: for Velvetleaf plant response rating (0 to 10 scale): 0 is no effect
In short: (§1)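 Herbicidal effect was estimated by eye on a ten-point control scale after plants spent twelve to sixteen days in a greenhouse following soil or foliar treatment. Foliar sprays targeted plants at one to four leaves; all doses were formulated in a non-phytotoxic solvent with surfactant.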

[3] = system: blackgrass; test: Test E blackgrass; assay type: in vivo, Alopecurus myosuroides; conditions: Preemergence
[4] = system: crabgrass; test: Test B pre/postemergence crabgrass; assay type: in vivo, Digitaria sanguinalis; conditions: for Crabgrass plant response rating (0 to 10 scale): 0 is no effect
In short: as §1

[5] = system: Green foxtail; test: Test D green foxtail; assay type: in vivo
In short: (§2)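 Seeds were sown in greenhouse pots, one species per pot or compartment. Compounds were in a non-phytotoxic solvent mixture with surfactant; preemergence applications went on the sandy loam surface within one day of planting. Injury was rated visually after 14 to 21 days, 0 (none) to 100 (complete control).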

[6] = system: Italian ryegrass; test: Test E Italian ryegrass; assay type: in vivo, Lolium multiflorum; conditions: Preemergence
[7] = system: goosegrass; test: Test D goosegrass; assay type: in vivo, Eleusine indica; conditions: Preemergence, 0 to 100 scale
In short: as §2

[8] = system: rice; test: Test B flood test rice; assay type: in vivo, Oryza sativa
In short: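 Flood test on plants grown to the 2-leaf stage; treated plants kept in greenhouse twelve to sixteen days, then visually rated against controls on a 0 (no effect) to 10 (complete control) scale.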

[9] = system: corn; test: Test B pre/postemergence corn; assay type: in vivo, Zea mays; conditions: for Corn plant response rating (0 to 10 scale): 0 is no effect
In short: as §1

[10] = system: winter barley; test: Test E winter barley; assay type: in vivo, Hordeum vulgare; conditions: Preemergence
[11] = system: green foxtail; test: Test E green foxtail; assay type: in vivo, Setaria viridis; conditions: Preemergence
[12] = system: winter wheat; test: Test E winter wheat; assay type: in vivo, Triticum aestivum; conditions: Preemergence
[13] = system: winter wheat; test: Test E winter wheat; assay type: in vivo, Triticum aestivum; conditions: Postemergence; for Plant response rating, Wheat (winter): 0 to 100 scale
In short: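 Compound formulated with surfactant in a non-phytotoxic solvent (postemergence: young 1- to 4-leaf plants); held in greenhouse approx. 21–28 days; visual assessment against untreated plants.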

[14] = Rate 62 g/ha, 0 to 100 scale, 0 no effect, 100 complete control
[15] = Rate 125 g/ha, 0 to 100 scale (0 no effect, 100 complete control)
[16] = Rate 500 g/ha, 0 to 100 scale where 0 is no effect and 100 is complete control
[17] = Postemergence, Rate 125 g/ha, scale of 0 to 10 where 0 is no effect and 10 is complete control
[18] = Preemergence, Rate 62 g/ha, scale 0 to 10 (0 no effect, 10 complete control)
[19] = Preemergence, Rate 125 g/ha, 10 is complete control
[20] = Preemergence, Rate 250 g/ha, scale 0 to 10, 0 is no effect, 10 is complete control
[21] = Preemergence, Rate 500 g/ha, scale 0 to 10 (0 no effect, 10 complete control)
[22] = Rate 62 g/ha, Postemergence, scale of 0 to 10 where 0 is no effect and 10 is complete control
[23] = Rate 250 g/ha, Postemergence, scale 0 to 10, 0 is no effect, 10 is complete control
[24] = Rate 500 g/ha, Postemergence, scale 0 to 10
[25] = Preemergence; Rate 16 g/ha; 0 to 100 scale, 0 no injury, 100 complete control
[26] = Preemergence; Rate 32 g/ha; 0 to 100 scale, 0 no injury, 100 complete control
[27] = Rate 16 g/ha; Preemergence; 0 to 100 scale, 0 no injury, 100 complete control
[28] = Rate 64 g/ha, Preemergence; 0 to 100 scale, 0 no injury, 100 complete control
[29] = Rate 125 g/ha, Preemergence; 0 to 100 scale, 0 no injury, 100 complete control
[30] = Rate 250 g/ha; Preemergence; 0 to 100 scale
[31] = Rate 500 g/ha, Preemergence; 0 to 100 scale
[32] = Rate 16 g/ha, 0 no injury, 100 complete control
[33] = Rate 32 g/ha, 0 no injury, 100 complete control
[34] = Rate 64 g/ha, 0 no injury, 100 complete control
[35] = Rate 125 g/ha, 0 no injury, 100 complete control
[36] = Rate 31 g/ha, 0 to 100 scale, 0 no effect, 100 complete control

## CC(C)N(C(=O)n1oc(=O)n(C(C)C)c1=O)c1ccc(F)cc1 [Compound 131]
[1]; [14]
  Plant response rating, Wild oat: 50
[1]; [15]
  Plant response rating, Wild oat: 50
[1]; Rate 250 g/ha
  Wild oat plant response rating (0 to 100 scale): 60
[1]; [16]
  Plant response rating, Wild oat: 100
[2]; [17]
  Velvetleaf plant response rating: 7
[2]; [18]
  Velvetleaf plant response rating: 7
[2]; [19]
  Velvetleaf plant response rating (0 to 10 scale): 8
[2]; [20]
  Velvetleaf plant response rating: 9
[2]; [21]
  Velvetleaf plant response rating: 10
[2]; [22]
  Velvetleaf plant response rating: 0
[2]; [23]
  Plant response rating, Velvetleaf: 8
[2]; [24]
  Velvetleaf plant response rating: 8
[3]; [14]
  Plant response rating, Blackgrass: 60
[3]; [15]
  Plant response rating, Blackgrass: 50
[3]; Rate 250 g/ha
  Blackgrass plant response rating (0 to 100 scale): 60
[3]; [16]
  Plant response rating, Blackgrass: 100
[4]; [17]
  Crabgrass plant response rating: 7
[4]; [18]
  Crabgrass plant response rating: 2
[4]; [19]
  Crabgrass plant response rating (0 to 10 scale): 7
[4]; [20]
  Crabgrass plant response rating: 9
[4]; [21]
  Crabgrass plant response rating: 10
[4]; [22]
  Crabgrass plant response rating: 5
[4]; [23]
  Plant response rating, Crabgrass: 8
[4]; [24]
  Crabgrass plant response rating: 9
[5]; [25]
  Plant response rating, Green foxtail: 90
[5]; [26]
  Plant response rating, Green foxtail: 100
[5]; [27]
  Plant response rating, Green foxtail: 90
[5]; [28]
  Green foxtail plant response rating: 100
  Plant response rating, Green foxtail: 100
[5]; [29]
  Green foxtail plant response rating: 100
  Plant response rating, Green foxtail: 100
[5]; [30]
  Plant response rating, Green foxtail: 100
[5]; [31]
  Plant response rating, Green foxtail: 100
[6]; [14]
  Plant response rating, I. Ryegrass: 70
[6]; [15]
  Plant response rating, I. Ryegrass: 100
[6]; Rate 250 g/ha
  I. Ryegrass plant response rating (0 to 100 scale): 100
[6]; [16]
  Plant response rating, I. Ryegrass: 100
[7]; [32]
  Plant response rating, Goosegrass: 75
[7]; [33]
  Plant response rating, Goosegrass: 98
[7]; [34]
  Plant response rating, Goosegrass: 100
[7]; [35]
  Plant response rating, Goosegrass: 100
[7]; Rate 250 g/ha
  Plant response rating, Goosegrass: 100
[7]; Rate 500 g/ha
  Plant response rating, Goosegrass: 100
[8]; Rate 62 g/ha, headed Pre-emergence (flood test species), scale 0 to 10 (0 no effect, 10 complete control)
  Rice plant response rating: 0
[8]; Rate 125 g/ha, Pre-emergence, flood test species, scale 0 to 10 where 0 is no effect and 10 is complete control
  Rice plant response rating: 0
[8]; Rate 250 g/ha, headed Pre-emergence (flood test species), scale 0 to 10 (0 no effect, 10 complete control)
  Rice plant response rating: 5
[8]; Rate 500 g/ha, headed Pre-emergence (flood test species), scale 0 to 10 (0 no effect, 10 complete control)
  Plant response rating, Rice: 8
[9]; [17]
  Corn plant response rating: 5
[9]; [18]
  Corn plant response rating: 0
[9]; [19]
  Corn plant response rating (0 to 10 scale): 5
[9]; [20]
  Corn plant response rating: 9
[9]; [21]
  Corn plant response rating: 10
[9]; [22]
  Corn plant response rating: 3
[9]; [23]
  Plant response rating, Corn: 6
[9]; [24]
  Corn plant response rating: 7
[10]; [14]
  Plant response rating, Barley (winter): 40
[10]; [15]
  Plant response rating, Barley (winter): 65
[10]; Rate 250 g/ha
  Barley (winter) plant response rating (0 to 100 scale): 100
[10]; [16]
  Plant response rating, Barley (winter): 100
[11]; [14]
  Plant response rating, Green foxtail: 60
[11]; [15]
  Plant response rating, Green foxtail: 100
[11]; Rate 250 g/ha
  Green foxtail plant response rating (0 to 100 scale): 100
[12]; [14]
  Plant response rating, Wheat (winter): 50
[12]; [15]
  Plant response rating, Wheat (winter): 35
[12]; Rate 250 g/ha
  Wheat (winter) plant response rating (0 to 100 scale): 60
[12]; [16]
  Plant response rating, Wheat (winter): 95
[13]; Rate 62 g/ha
  Plant response rating, Wheat (winter): 50
[13]; Rate 125 g/ha
  Plant response rating, Wheat (winter): 60
[13]; Rate 500 g/ha, 0 no effect, 100 complete control
  Plant response rating, Wheat (winter): 20
[13]; Rate 250 g/ha, 0 to 100 scale where 0 is no effect and 100 is complete control
  Wheat (winter) plant response rating: 0

## C=CCn1c(=O)on(C(=O)N(c2ccc(F)cc2F)C(C)C)c1=O [Compound 151]
[1]; [36]
  Plant response rating, Wild oat: 10
[1]; [14]
  Plant response rating, Wild oat: 10
[1]; [15]
  Plant response rating, Wild oat: 20
[2]; [18]
  Velvetleaf plant response rating: 6
[2]; [19]
  Velvetleaf plant response rating (0 to 10 scale): 8
[2]; [20]
  Velvetleaf plant response rating: 10
[2]; [21]
  Velvetleaf plant response rating: 10
[2]; [22]
  Velvetleaf plant response rating: 3
[2]; [23]
  Plant response rating, Velvetleaf: 3
[2]; [24]
  Velvetleaf plant response rating: 5
[3]; [36]
  Plant response rating, Blackgrass: 30
[3]; [14]
  Plant response rating, Blackgrass: 45
[3]; [15]
  Plant response rating, Blackgrass: 75
[4]; [17]
  Crabgrass plant response rating: 9
[4]; [18]
  Crabgrass plant response rating: 10
[4]; [19]
  Crabgrass plant response rating (0 to 10 scale): 10
[4]; [20]
  Crabgrass plant response rating: 10
[4]; [21]
  Crabgrass plant response rating: 10
[4]; [22]
  Crabgrass plant response rating: 8
[4]; [23]
  Plant response rating, Crabgrass: 9
[4]; [24]
  Crabgrass plant response rating: 9
[5]; [25]
  Plant response rating, Green foxtail: 100
[5]; [26]
  Plant response rating, Green foxtail: 100
[5]; [27]
  Plant response rating, Green foxtail: 100
[5]; Rate 32 g/ha; Preemergence; 0 to 100 scale, 0 no injury, 100 complete control
  Plant response rating, Green foxtail: 75
[5]; [28]
  Green foxtail plant response rating: 100
  Plant response rating, Green foxtail: 100
[5]; [29]
  Green foxtail plant response rating: 100
  Plant response rating, Green foxtail: 100
[5]; [30]
  Plant response rating, Green foxtail: 100
[5]; [31]
  Plant response rating, Green foxtail: 100
[6]; [36]
  Plant response rating, I. Ryegrass: 20
[6]; [14]
  Plant response rating, I. Ryegrass: 30
[6]; [15]
  Plant response rating, I. Ryegrass: 50
[7]; [32]
  Plant response rating, Goosegrass: 85
[7]; [33]
  Plant response rating, Goosegrass: 85
[7]; [34]
  Plant response rating, Goosegrass: 100
[7]; [35]
  Plant response rating, Goosegrass: 100
[7]; Rate 250 g/ha
  Plant response rating, Goosegrass: 100
[7]; Rate 500 g/ha
  Plant response rating, Goosegrass: 100
[8]; Postemergence (flood test species), Rate 125 g/ha, scale of 0 to 10 where 0 is no effect and 10 is complete control
  Rice plant response rating: 0
[8]; Rate 62 g/ha, Postemergence section, flood test species, scale of 0 to 10 where 0 is no effect and 10 is complete control
  Rice plant response rating: 0
[8]; Rate 250 g/ha, Postemergence (flood test), scale 0 to 10, 0 is no effect, 10 is complete control
  Plant response rating, Rice: 0
[8]; Rate 500 g/ha, listed under Postemergence (flood test species), scale 0 to 10
  Rice plant response rating: 0
[9]; [17]
  Corn plant response rating: 0
[9]; [18]
  Corn plant response rating: 0
[9]; [19]
  Corn plant response rating (0 to 10 scale): 0
[9]; [20]
  Corn plant response rating: 5
[9]; [21]
  Corn plant response rating: 9
[9]; [22]
  Corn plant response rating: 0
[9]; [23]
  Plant response rating, Corn: 2
[9]; [24]
  Corn plant response rating: 6
[10]; [36]
  Plant response rating, Barley (winter): 10
[10]; [14]
  Plant response rating, Barley (winter): 10
[10]; [15]
  Plant response rating, Barley (winter): 20
[11]; [36]
  Plant response rating, Green foxtail: 20
[11]; [14]
  Plant response rating, Green foxtail: 30
[11]; [15]
  Plant response rating, Green foxtail: 80
[12]; [36]
  Plant response rating, Wheat (winter): 0
[12]; [14]
  Plant response rating, Wheat (winter): 0
[12]; [15]
  Plant response rating, Wheat (winter): 10
[13]; Rate 31 g/ha, 0 no effect, 100 complete control
  Plant response rating, Wheat (winter): 10
[13]; Rate 62 g/ha
  Plant response rating, Wheat (winter): 10
[13]; Rate 125 g/ha
  Plant response rating, Wheat (winter): 70

Source: US6737383B1, “Herbicidal oxadiazolidines” (priority 1999, dated 2004)
